Results on 1 molecule are retold here after ChEMBL document CHEMBL1151451 (Antimicrob Agents Chemother, 2007).

Data set [1] concerns Mycobacterium tuberculosis. Description: Antimicrobial activity against avirulent Mycobacterium tuberculosis H37Ra.
Data set [2] concerns Mycobacterium tuberculosis. As to the kind of experiment: Antimicrobial activity against Mycobacterium tuberculosis H37Rv infected in CD-1 mouse lung. The class given is functional.
In data set [3] the test system is Mycobacterium tuberculosis. The class given is functional.
Data set [4] concerns Mycobacterium tuberculosis. Description: Antimicrobial activity against Mycobacterium tuberculosis H37Rv infected in CD-1 mouse lung at 75 mg/kg administered through gavage. The class given is functional.
The nature of data set [5]: Drug level in CD-1 mouse serum at […] administered through gavage after 24 hrs. The class given is ADME. The following applies: po, read-out: Drug uptake.
For data set [6], the system named is Mycobacterium tuberculosis. The class given is functional. The source holds these as a separate data set.
Data set [7] is described as follows: AUC (0 to 24 hrs) in CD-1 mouse at […] administered through gavage. The class given is ADME, organism-based. The following applies: plasma, po.
The nature of data set [8]: AUC in human at 400 mg, po. The class given is ADME, organism-based. Conditions: plasma.

≈ marks a conversion by molar mass, not a printed value.

`COc1c(N2C[C@@H]3CCCN[C@@H]3C2)c(F)cc2c(=O)c(C(=O)O)cn(C3CC3)c12` [MOXIFLOXACIN] gave an MIC in data set [1] of 0.25 µg/mL (≈ 0.623 µM). In addition, the log10cfu came out at 7.87 in data set [2], 3.48 in data set [3], 0.93 in data set [4] and 8.61 in data set [6]. Moreover, the concentration at 24 h in data set [5] worked out at 8000 ng/mL. Also, the AUC(0-t) in data set [7] is 27400 ng·h/mL. In data set [8], this molecule yielded an area under the curve (AUC) of 26900 ng·h/mL.
